Laboratory results published in patent publication US8629276B2, “Inhibitors of human immunodeficiency virus replication” (priority 2012, dated 2014).

Each compound was assayed on recombinant NL-Rluc virus (assay: Inhibition of HIV replication (NL-RLuc virus, luciferase readout in MT-2 cells)). Details: Human immunodeficiency virus 1, MT2, 120 h.
Type: cell-based
`CC(C)c1nc2c(c(-c3ccc(F)cc3)c1C(OC(C)(C)C)C(=O)O)CN(C(=O)CCCc1ccccc1)CC2(C)C` (stereo not drawn) [Example 9, 2-tert-Butoxy-2-(4-(4-fluorophenyl)-2-isopropyl-8,8-dimethyl-6-(4-phenylbutanoyl)-5,6,7,8-tetrahydro-1,6-naphthyridin-3-yl)acetic acid] was tested, and the EC50 was 6.71 µM. `CC(C)c1nc2c(c(-c3ccc(F)cc3)c1C(OC(C)(C)C)C(=O)O)CN(C(=O)C(=O)c1c[nH]c3ccccc13)CC2(C)C` (stereo not drawn) [Example 11, 2-(6-(2-(1H-Indol-3-yl)-2-oxoacetyl)-4-(4-fluorophenyl)-2-isopropyl-8,8-dimethyl-5,6,7,8-tetrahydro-1,6-naphthyridin-3-yl)-2-tert-butoxyacetic acid] was tested, and the EC50 was 4.12 µM. `CC(C)c1nc2c(c(-c3ccc(F)cc3)c1C(OC(C)(C)C)C(=O)O)CN(C(=O)CCc1ccccc1)CC2(C)C` (stereo not drawn) [Example 12, 2-tert-Butoxy-2-(4-(4-fluorophenyl)-2-isopropyl-8,8-dimethyl-6-(3-phenylpropanoyl)-5,6,7,8-tetrahydro-1,6-naphthyridin-3-yl)acetic acid] was tested, and the EC50 was 7.13 µM. Compound `CC(C)c1nc2c(c(-c3ccc(F)cc3)c1C(OC(C)(C)C)C(=O)O)CN(C(=O)c1ccc(-c3ccccc3)cc1)CC2(C)C` (stereo not drawn) [Example 13, 2-(6-(Biphenylcarbonyl)-4-(4-fluorophenyl)-2-isopropyl-8,8-dimethyl-5,6,7,8-tetrahydro-1,6-naphthyridin-3-yl)-2-tert-butoxyacetic acid] has an EC50 of 2.01 µM. In the case of `Cc1onc(-c2ccccc2)c1C(=O)N1Cc2c(nc(C(C)C)c(C(OC(C)(C)C)C(=O)O)c2-c2ccc(F)cc2)C(C)(C)C1` (stereo not drawn) [Example 14, 2-tert-Butoxy-2-(4-(4-fluorophenyl)-2-isopropyl-8,8-dimethyl-6-(5-methyl-3-phenylisoxazole-4-carbonyl)-5,6,7,8-tetrahydro-1,6-naphthyridin-3-yl)acetic acid], the EC50 is reported as 10.2 µM. Compound `CC(C)c1nc2c(c(-c3ccc(F)cc3)c1C(OC(C)(C)C)C(=O)O)CN(c1ccccc1)CC2(C)C` (stereo not drawn) [Example 15, 2-tert-Butoxy-2-(4-(4-fluorophenyl)-2-isopropyl-8,8-dimethyl-6-phenyl-5,6,7,8-tetrahydro-1,6-naphthyridin-3-yl)acetic acid] has an EC50 of 2.09 µM. With `CC(C)c1nc2c(c(-c3ccc(F)cc3)c1C(OC(C)(C)C)C(=O)O)CN(Cc1ccc(F)cc1)CC2(C)C` (stereo not drawn) [Example 16, 2-tert-Butoxy-2-(6-(4-fluorobenzyl)-4-(4-fluorophenyl)-2-isopropyl-8,8-dimethyl-5,6,7,8-tetrahydro-1,6-naphthyridin-3-yl)acetic acid] the EC50 was 6.92 µM. In the case of `CC(C)c1nc2c(c(-c3ccc(F)cc3)c1C(OC(C)(C)C)C(=O)O)CN(c1cccc(-c3ccccc3)c1)CC2(C)C` (stereo not drawn) [Example 17, 2-(6-([1,1′-Biphenyl]-3-yl)-4-(4-fluorophenyl)-2-isopropyl-8,8-dimethyl-5,6,7,8-tetrahydro-1,6-naphthyridin-3-yl)-2-(tert-butoxy)acetic acid], the EC50 is reported as 4.6 µM. Compound `CC(C)c1nc2c(c(-c3ccc(F)cc3)c1C(OC(C)(C)C)C(=O)O)CN(c1ccc(-c3ccccc3)cc1)CC2(C)C` (stereo not drawn) [Example 18, 2-(6-([1,1′-Biphenyl]-4-yl)-4-(4-fluorophenyl)-2-isopropyl-8,8-dimethyl-5,6,7,8-tetrahydro-1,6-naphthyridin-3-yl)-2-(tert-butoxy)acetic acid] has an EC50 of 2.02 µM. `Cc1ccc(-c2c3c(nc(C)c2C(OC(C)(C)C)C(=O)O)CCN(C(=O)OCc2ccccc2)C3)cc1` (stereo not drawn) [Example 19, 2-(6-((Benzyloxy)carbonyl)-2-methyl-4-(p-tolyl)-5,6,7,8-tetrahydro-1,6-naphthyridin-3-yl)-2-(tert-butoxy)acetic acid] showed an EC50 of 0.226 µM. `Cc1ccc(-c2c3c(nc(C)c2C(OC(C)(C)C)C(=O)O)CCNC3)cc1` (stereo not drawn) [Example 20, 2-(tert-Butoxy)-2-(2-methyl-4-(p-tolyl)-5,6,7,8-tetrahydro-1,6-naphthyridin-3-yl)acetic acid] was tested, and the EC50 was 13.5 µM. With `Cc1ccc(-c2c3c(nc(C)c2C(OC(C)(C)C)C(=O)O)CCN(Cc2ccccc2)C3)cc1` (stereo not drawn) [Example 21, 2-(6-Benzyl-2-methyl-4-(p-tolyl)-5,6,7,8-tetrahydro-1,6-naphthyridin-3-yl)-2-(tert-butoxy)acetic acid] the EC50 was 0.295 µM. `Cc1ccc(-c2c3c(nc(C)c2C(OC(C)(C)C)C(=O)O)CCN(S(C)(=O)=O)C3)cc1` (stereo not drawn) [Example 22, 2-(tert-Butoxy)-2-(2-methyl-6-(methylsulfonyl)-4-(p-tolyl)-5,6,7,8-tetrahydro-1,6-naphthyridin-3-yl)acetic acid] gave an EC50 of 2.65 µM. For `Cc1ccc(-c2c3c(nc(C)c2C(OC(C)(C)C)C(=O)O)CCN(C)C3)cc1` (stereo not drawn) [Example 23, 2-(tert-Butoxy)-2-(2,6-dimethyl-4-(p-tolyl)-5,6,7,8-tetrahydro-1,6-naphthyridin-3-yl)acetic acid], the EC50 was 2.08 µM. Compound `Cc1ccc(-c2c3c(nc(C)c2C(OC(C)(C)C)C(=O)O)CCN(CCc2ccccc2)C3)cc1` (stereo not drawn) [Example 24, 2-(tert-Butoxy)-2-(2-methyl-6-phenethyl-4-(p-tolyl)-5,6,7,8-tetrahydro-1,6-naphthyridin-3-yl)acetic acid] has an EC50 of 0.24 µM. In the case of `CC(=O)N1CCc2nc(C)c(C(OC(C)(C)C)C(=O)O)c(-c3ccc(C)cc3)c2C1` (stereo not drawn) [Example 25, 2-(6-Acetyl-2-methyl-4-(p-tolyl)-5,6,7,8-tetrahydro-1,6-naphthyridin-3-yl)-2-(tert-butoxy)acetic acid], the EC50 is reported as 1.92 µM. `COC(=O)N1CCc2nc(C)c(C(OC(C)(C)C)C(=O)O)c(-c3ccc(C)cc3)c2C1` (stereo not drawn) [Example 26, 2-(tert-Butoxy)-2-(6-(methoxycarbonyl)-2-methyl-4-(p-tolyl)-5,6,7,8-tetrahydro-1,6-naphthyridin-3-yl)acetic acid] showed an EC50 of 1.64 µM. Work on `Cc1ccc(-c2c3c(nc(C)c2C(OC(C)(C)C)C(=O)O)CCN(C(=O)NCc2ccccc2)C3)cc1` (stereo not drawn) [Example 27, 2-(6-(Benzylcarbamoyl)-2-methyl-4-(p-tolyl)-5,6,7,8-tetrahydro-1,6-naphthyridin-3-yl)-2-(tert-butoxy)acetic acid] yielded an EC50 of 0.499 µM. Work on `Cc1ccc(-c2c3c(nc(C)c2C(OC(C)(C)C)C(=O)O)CCN(C(=O)CCc2ccccc2)C3)cc1` (stereo not drawn) [Example 28, 2-(tert-Butoxy)-2-(2-methyl-6-(3-phenylpropanoyl)-4-(p-tolyl)-5,6,7,8-tetrahydro-1,6-naphthyridin-3-yl)acetic acid] yielded an EC50 of 0.335 µM. Compound `Cc1ccc(-c2c3c(nc(C)c2C(OC(C)(C)C)C(=O)O)CCN(CCCc2ccccc2)C3)cc1` (stereo not drawn) [Example 29, 2-(tert-Butoxy)-2-(2-methyl-6-(3-phenylpropyl)-4-(p-tolyl)-5,6,7,8-tetrahydro-1,6-naphthyridin-3-yl)acetic acid] has an EC50 of 0.01 µM. `Cc1ccc(-c2c3c(nc(C)c2C(OC(C)(C)C)C(=O)O)CCN(c2ccc(-c4ccccc4)cc2)C3)cc1` (stereo not drawn) [Example 30, 2-(6-([1,1′-Biphenyl]-4-yl)-2-methyl-4-(p-tolyl)-5,6,7,8-tetrahydro-1,6-naphthyridin-3-yl)-2-(tert-butoxy)acetic acid] gave an EC50 of 0.323 µM. Compound `Cc1ccc(-c2c3c(nc(C)c2C(OC(C)(C)C)C(=O)O)CCN(c2ccccc2)C3)cc1` (stereo not drawn) [Example 31, 2-(tert-Butoxy)-2-(2-methyl-6-phenyl-4-(p-tolyl)-5,6,7,8-tetrahydro-1,6-naphthyridin-3-yl)acetic acid] has an EC50 of 0.466 µM. In the case of `COc1ccc(CCCN2CCc3nc(C)c([C@H](OC(C)(C)C)C(=O)O)c(-c4ccc(C)cc4)c3C2)cc1` [Example 33, (S)-2-(tert-Butoxy)-2-(6-(3-(4-methoxyphenyl)propyl)-2-methyl-4-(p-tolyl)-5,6,7,8-tetrahydro-1,6-naphthyridin-3-yl)acetic acid], the EC50 is reported as 0.017 µM. `Cc1ccc(-c2c3c(nc(C)c2[C@H](OC(C)(C)C)C(=O)O)CCN(CCCc2ccc(Cl)cc2)C3)cc1` [Example 34, (S)-2-(tert-Butoxy)-2-(6-(3-(4-chlorophenyl)propyl)-2-methyl-4-(p-tolyl)-5,6,7,8-tetrahydro-1,6-naphthyridin-3-yl)acetic acid] showed an EC50 of 0.012 µM. Compound `Cc1nc2c(c(-c3cc(F)c4c(c3C)CCCO4)c1[C@H](OC(C)(C)C)C(=O)O)CN(C(=O)OCc1ccccc1)CC2(C)C` [Example 35, (2S)-2-(6-((Benzyloxy)carbonyl)-4-(8-fluoro-5-methylchroman-6-yl)-2,8,8-trimethyl-5,6,7,8-tetrahydro-1,6-naphthyridin-3-yl)-2-(tert-butoxy)acetic acid] has an EC50 of 0.003 µM. For `Cc1ccc(-c2c3c(nc(C)c2[C@H](OC(C)(C)C)C(=O)O)CCN(C(=O)CCCc2ccccc2)C3)cc1` [Example 36, (S)-2-(tert-Butoxy)-2-(2-methyl-6-(4-phenylbutanoyl)-4-(p-tolyl)-5,6,7,8-tetrahydro-1,6-naphthyridin-3-yl)acetic acid], the EC50 was 0.052 µM. With `Cc1nc2c(c(-c3cc(F)c4c(c3C)CCCO4)c1[C@H](OC(C)(C)C)C(=O)O)CN(Cc1cccc(Cl)c1)CC2(C)C` [Example 37, (2S)-2-(tert-Butoxy)-2-(6-(3-chlorobenzyl)-4-(8-fluoro-5-methylchroman-6-yl)-2,8,8-trimethyl-5,6,7,8-tetrahydro-1,6-naphthyridin-3-yl)acetic acid] the EC50 was 0.069 µM. Work on `Cc1nc2c(c(-c3ccc(Cl)cc3)c1[C@H](OC(C)(C)C)C(=O)O)CN(C(=O)OCc1ccccc1)CC2` [Example 38, (S)-2-(6-((Benzyloxy)carbonyl)-4-(4-chlorophenyl)-2-methyl-5,6,7,8-tetrahydro-1,6-naphthyridin-3-yl)-2-(tert-butoxy)acetic acid] yielded an EC50 of 0.543 µM. Work on `Cc1ccc(-c2c3c(nc(C)c2[C@H](OC(C)(C)C)C(=O)O)CCN(Cc2cccc(Cl)c2)C3)cc1` [Example 39, (S)-2-(tert-Butoxy)-2-(6-(3-chlorobenzyl)-2-methyl-4-(p-tolyl)-5,6,7,8-tetrahydro-1,6-naphthyridin-3-yl)acetic acid] yielded an EC50 of 0.137 µM. `Cc1nc2c(c(-c3cc(F)c4c(c3C)CCCO4)c1[C@H](OC(C)(C)C)C(=O)O)CN(CCCc1ccccc1)CC2(C)C` [Example 40, (2S)-2-(tert-Butoxy)-2-(4-(8-fluoro-5-methylchroman-6-yl)-2,8,8-trimethyl-6-(3-phenylpropyl)-5,6,7,8-tetrahydro-1,6-naphthyridin-3-yl)acetic acid] showed an EC50 of 0.002 µM.
